The values below come from article PMC9595134, “Novel pituitary actions of GnRH in teleost: The link between reproduction and feeding regulation” (Frontiers in Endocrinology, 2022).

Where a SMILES comes first, the peptide text is derived from it. [ ]: non-standard residue; d: D form. pGlu = O=C1CC[C@@H](C(=O)O)N1

Test [1] deals with grass carp pituitary cells. Briefly: qRT-PCR of reproductive hormone genes in pituitary cells. It counts as cell-based, grass carp (Ctenopharyngodon idellus). The procedure:
(§1) The preparation of grass carp pituitary cells was performed as mentioned above. After drug treatment, the total RNA of these cells was isolated by TRIzol reagent and reverse transcribed into cDNA with Hifair™ III 1st Strand cDNA Synthesis Kit. The transcript levels of several anorectic peptides (POMCb, CART2, UTS1, NMBa, NMBb, and Lepr) and reproductive genes (GtHα, LHβ, FSHβ, INHBa, SgII, DRD2) were detected by using an ABI 7500 quantitative real-time PCR (qRT-PCR) system (Biosystems, USA) (information of primers for target genes is listed in Supplementary Table S3 ). In this process, a serial gradient dilution of plasmid DNA of these genes was used as a standard for data calibration. The conditions of qRT-PCR were set to 10 min, 95°C, for pre-degeneration; 15 s, 95°C, for degeneration; 30 s, 55°C–60°C, for annealing; 30 s, 72°C, for extending; and 20 s, 82°C, for signal detection with 40 cycles. Finally, the melt curve obtained through each test was used to verify and check the reliability and specificity of the corresponding qRT-PCR.
(§2) The transcript level was detected using qRT-PCR by ABI 7500 software, while the data calibration of each reaction was performed through standard curves with the dynamic range of 10^5 and correlation coefficient >0.95. The transcript level of β-actin was used as an internal control, and target gene mRNA expression was normalized and calculated as a percentage of the mean value (as “% Ctrl”). Based on merging four to eight replicates (as mean ± SEM), the data were analyzed with a one-way ANOVA to differentiate the significant differences from other treatment experiments. The SPSS Statistics 26.0 software was used to do a Dunnett’s post-hoc test. […] The different letters represent a significant difference at p < 0.05 between groups.
To further verify the reproductive function of GnRHs, time- and dose-dependent tests were performed to detect GnRH2- or GnRH3-regulated GtHα, LHβ, FSHβ, INHBa, SgII, and DRD2 mRNA expression in grass carp pituitary cells. […] In the dose-dependent test, a continuous gradient dilution of GnRH2 (0.1–1,000 nM) or GnRH3 (0.1–1,000 nM) was incubated with grass carp pituitary cells for 24 h.
Figure 5 Regulation of reproductive hormone gene mRNA expression by GnRH2 and GnRH3 in grass carp pituitary cells. (A) Time-course experiment of grass carp GnRH2 (1 μM) and GnRH3 (1 μM) on GtHα, LHβ, FSHβ, INHBa, SgII, and DRD2 mRNA expression in grass carp pituitary cells. (B) Dose dependence of a 24-h treatment with increasing levels of GnRH2 and GnRH3 (0.1–1,000 nM) on GtHα, LHβ, FSHβ, INHBa, SgII, and DRD2 mRNA expression in grass carp pituitary cells. After drug treatment, the pituitary cells were extracted to total RNA, reversed transcribed, and used for RT-PCR to detect the target genes’ mRNA expression. […] The different letters represent a significant difference at p < 0.05 between groups (ANOVA followed by a Dunnett test).
On the technique in general: Real-time PCR tracks product formation cycle by cycle.

Test [2] deals with grass carp pituitary cells. Briefly: qRT-PCR of anorectic genes in pituitary cells. The class given is cell-based, grass carp (Ctenopharyngodon idellus). Here is the method: as §1, §2
To further verify the functional role of GnRH2 and GnRH3 on feeding regulation, time- and dose-dependent tests were performed to detect the effect of GnRH2 and GnRH3 on anorectic gene (POMCb, CART2, UTS1, NMBa, NMBb, and LEPR) mRNA expression. In the time-course test, the grass carp pituitary cells were incubated by GnRH2 or GnRH3 (1 μM) for 3, 6, 12, and 24 h, respectively. […] In the dose-dependent test, grass carp pituitary cells were incubated by the continuous gradient dilution of GnRH2 or GnRH3 (0.1–1,000 nM) for 24 h.
Figure 9 Regulation of feeding hormone gene mRNA expression by GnRH2 and GnRH3 in grass carp pituitary cells. (A) Time-course experiment of grass carp GnRH2 (1 μM) and GnRH3 (1 μM) on POMCb, CART2, UTS1, NMBa, NMBb, and LEPR mRNA expression in grass carp pituitary cells. (B) Dose dependence of a 24-h treatment with increasing levels of GnRH2 and GnRH3 (0.1–1,000 nM) on POMCb, CART2, UTS1, NMBa, NMBb, and LEPR mRNA expression in grass carp pituitary cells. […]

Another test relates to goldfish. Details: method as in PMID 7507838, PMID 8045371. The following applies: sexually regressed animals, ref [34], [35]; cited from earlier work.
For the next test, the system named is pituitary. The note with it: teleost; ref [5], [10]; cited from earlier work. An excerpt: Subsequently, GnRH2 had been firstly found in chicken so that this variant was also named as chicken GnRH (cGnRH) ([3]). In addition, the third GnRH variant (GnRH3) was an ubiquitous and unique subtype existing in fish ([3]), which was primitively discovered in salmon so that it was named as salmon GnRH (sGnRH) ([4]). Multiple GnRH variants (two or three forms) are present in all teleosts ([5]), but the receptor selectivity a ...

Where [3] appears, read: 1 μM, time-dependent, Figure 5A.

Consider `CC(C)C[C@H](NC(=O)[C@H](Cc1c[nH]c2ccccc12)NC(=O)CNC(=O)[C@H](Cc1ccc(O)cc1)NC(=O)[C@H](CO)NC(=O)[C@H](Cc1c[nH]c2ccccc12)NC(=O)[C@H](Cc1c[nH]cn1)NC(=O)[C@@H]1CCC(=O)N1)C(=O)N1CCC[C@H]1C(=O)NCC(N)=O` [GnRH3] ([pGlu]HWSYGWLPG-NH2), for which, in test [1] (setting [3]), the “effect on DRD2 mRNA expression, time course” value is reported as “inhibit”; the “effect on GtHα, LHβ, FSHβ, INHBa, and SgII mRNA expression, time course” value was “significantly induce”. Also, the “effect on DRD2 mRNA expression, dose test” value in test [1] (0.1–1,000 nM (all treated doses), 24 h, Figure 5B) is recorded as “significantly inhibit”. The “effect on GtHα, LHβ, FSHβ, INHBa, and SgII mRNA expression, dose dependence” value in test [1] (0.1–1,000 nM, 24 h, dose-dependent, Figure 5B) is recorded as “significantly induce”. Moreover, the “effect on POMCb, CART2, UTS1, NMBa, NMBb, and LEPR mRNA expression, time course” value in test [2] (1 μM, 3, 6, 12, and 24 h, time-dependent, Figure 9A) was “significantly induce”. Further, the “effect on POMCb, CART2, UTS1, NMBa, NMBb, and LEPR mRNA expression, dose dependence” value in test [2] (0.1–1,000 nM, 24 h, dose-dependent, Figure 9B) was “significantly induce”. Moreover, the LH-releasing activity result with goldfish was “potent LH-releasing activity”. The “effect on LH and FSH secretion in the pituitary” value in the test on pituitary was “could stimulate”.
